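Dose response: 5 concentrations. Exposure: 48 h. Format: 96-well plates. Endpoint: linear interpolation; highest concentration if not reached. Here, GI50 denotes the concentration required for 50% inhibition of growth. Definition used: TGI = concentration required for complete inhibition of growth.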
Assays:
Assay in all cases: growth of human tumour cells (NCI), 48 h
HL-60(TB) leukemia = tested on: HL-60(TB) leukemia
MDA-MB-231 breast = tested on: MDA-MB-231 breast
RPMI-8226 leukemia = tested on: RPMI-8226 leukemia
LOX IMVI melanoma = tested on: LOX IMVI melanoma
HCC-2998 colon = tested on: HCC-2998 colon
COLO 205 colon = tested on: COLO 205 colon
DU-145 prostate = tested on: DU-145 prostate
A549 NSCLC = tested on: A549 NSCLC
NCI-H522 lung = tested on: NCI-H522 lung
OVCAR-8 ovarian = tested on: OVCAR-8 ovarian
CAKI-1 renal = tested on: CAKI-1 renal
HCT-116 colon = tested on: HCT-116 colon
PC-3 prostate = tested on: PC-3 prostate
SF-295 CNS = tested on: SF-295 CNS
M14 melanoma = tested on: M14 melanoma
MCF7 breast = tested on: MCF7 breast
NCI-H226 lung = tested on: NCI-H226 lung
HCT-15 colon = tested on: HCT-15 colon
KM12 colon = tested on: KM12 colon
SF-268 CNS = tested on: SF-268 CNS
CCRF-CEM leukemia = tested on: CCRF-CEM leukemia
UACC-62 melanoma = tested on: UACC-62 melanoma
HOP-62 NSCLC = tested on: HOP-62 NSCLC
HOP-92 NSCLC = tested on: HOP-92 NSCLC
786-0 renal = tested on: 786-0 renal
SNB-75 CNS = tested on: SNB-75 CNS
SW-620 colon = tested on: SW-620 colon
RXF 393 renal = tested on: RXF 393 renal
HT29 colon = tested on: HT29 colon
EKVX NSCLC = tested on: EKVX NSCLC
HS 578T breast = tested on: HS 578T breast
OVCAR-4 ovarian = tested on: OVCAR-4 ovarian
U251 CNS = tested on: U251 CNS
TK-10 renal = tested on: TK-10 renal
SN12C renal = tested on: SN12C renal
MOLT-4 leukemia = tested on: MOLT-4 leukemia
BT-549 breast = tested on: BT-549 breast
ACHN renal = tested on: ACHN renal
SK-OV-3 ovarian = tested on: SK-OV-3 ovarian
SK-MEL-28 melanoma = tested on: SK-MEL-28 melanoma
SK-MEL-5 melanoma = tested on: SK-MEL-5 melanoma
NCI-H460 lung = tested on: NCI-H460 lung
UO-31 renal = tested on: UO-31 renal
OVCAR-5 ovarian = tested on: OVCAR-5 ovarian
K-562 leukemia = tested on: K-562 leukemia
OVCAR-3 ovarian = tested on: OVCAR-3 ovarian
MALME-3M melanoma = tested on: MALME-3M melanoma
IGROV1 ovarian = tested on: IGROV1 ovarian
NCI/ADR-RES ovarian = tested on: NCI/ADR-RES ovarian
SR leukemia = tested on: SR leukemia
UACC-257 melanoma = tested on: UACC-257 melanoma
SK-MEL-2 melanoma = tested on: SK-MEL-2 melanoma
NCI-H23 lung = tested on: NCI-H23 lung
SNB-19 CNS = tested on: SNB-19 CNS
T-47D breast = tested on: T-47D breast
MDA-MB-435 = tested on: MDA-MB-435
A498 renal = tested on: A498 renal
SF-539 CNS = tested on: SF-539 CNS

N=c1oc2ccccc2cc1C(=O)Nc1nccs1 gave a TGI (HL-60(TB) leukemia) of 5.92 µM, a TGI (MDA-MB-231 breast) greater than 86.3 µM and a TGI (RPMI-8226 leukemia) of 50.5 µM. The TGI (LOX IMVI melanoma) was 7.71 µM, the TGI (HCC-2998 colon) was greater than 100 µM and the TGI (COLO 205 colon) was 45.6 µM. For the same compound, the TGI (DU-145 prostate) was greater than 79.4 µM, the TGI (A549 NSCLC) was greater than 100 µM and the TGI (NCI-H522 lung) was 3.82 µM. For the same compound, the TGI (OVCAR-8 ovarian) was greater than 92.4 µM, the TGI (CAKI-1 renal) was greater than 88.1 µM and the TGI (HCT-116 colon) was greater than 100 µM. The TGI (PC-3 prostate) was greater than 100 µM, the TGI (SF-295 CNS) was greater than 100 µM and the TGI (M14 melanoma) was greater than 100 µM. For the same compound, the TGI (MCF7 breast) was greater than 100 µM, the TGI (NCI-H226 lung) was greater than 92.3 µM and the TGI (HCT-15 colon) was greater than 100 µM. The TGI (KM12 colon) was greater than 100 µM, the TGI (SF-268 CNS) was greater than 100 µM and the TGI (CCRF-CEM leukemia) was 20 µM. For the same compound, the TGI (UACC-62 melanoma) was greater than 100 µM, the TGI (HOP-62 NSCLC) was 64.7 µM and the TGI (HOP-92 NSCLC) was greater than 100 µM. It also gave a TGI (786-0 renal) of 6.3 µM, a TGI (SNB-75 CNS) of 99 µM and a TGI (SW-620 colon) greater than 100 µM. It also gave a TGI (RXF 393 renal) greater than 83.9 µM, a TGI (HT29 colon) greater than 100 µM and a TGI (EKVX NSCLC) greater than 79.5 µM. It also gave a TGI (HS 578T breast) greater than 100 µM, a TGI (OVCAR-4 ovarian) greater than 74.2 µM and a TGI (U251 CNS) greater than 100 µM. For the same compound, the TGI (TK-10 renal) was greater than 50.7 µM, the TGI (SN12C renal) was greater than 100 µM and the TGI (MOLT-4 leukemia) was 22.1 µM. It also gave a TGI (BT-549 breast) greater than 100 µM, a TGI (ACHN renal) of 26.8 µM and a TGI (SK-OV-3 ovarian) greater than 83.4 µM. The TGI (SK-MEL-28 melanoma) was greater than 100 µM, the TGI (SK-MEL-5 melanoma) was greater than 100 µM and the TGI (NCI-H460 lung) was greater than 76.5 µM. It also gave a TGI (UO-31 renal) of 0.22 µM, a TGI (OVCAR-5 ovarian) greater than 100 µM and a TGI (K-562 leukemia) greater than 100 µM. For the same compound, the TGI (OVCAR-3 ovarian) was 43.3 µM, the TGI (MALME-3M melanoma) was greater than 100 µM and the TGI (IGROV1 ovarian) was greater than 49.2 µM. It also gave a TGI (NCI/ADR-RES ovarian) greater than 100 µM, a TGI (SR leukemia) of 47.7 µM and a TGI (UACC-257 melanoma) greater than 95.3 µM. The TGI (SK-MEL-2 melanoma) was 65.4 µM, the TGI (NCI-H23 lung) was greater than 100 µM and the TGI (SNB-19 CNS) was greater than 100 µM. For the same compound, the TGI (T-47D breast) was greater than 84 µM, the TGI (MDA-MB-435) was greater than 100 µM and the TGI (A498 renal) was greater than 100 µM.

For OCc1ccc(N(Cc2ccc(F)cc2)CC2CCC2)cc1Cl, the GI50 (HL-60(TB) leukemia) was 12.1 µM, the TGI (HL-60(TB) leukemia) was 28.9 µM and the GI50 (MDA-MB-231 breast) was 13.5 µM. For the same compound, the TGI (MDA-MB-231 breast) was 26.8 µM, the GI50 (RPMI-8226 leukemia) was 9.28 µM and the TGI (RPMI-8226 leukemia) was 31.6 µM. The GI50 (LOX IMVI melanoma) was 14.7 µM, the TGI (LOX IMVI melanoma) was 29.2 µM and the GI50 (HCC-2998 colon) was 11.5 µM. The TGI (HCC-2998 colon) was 25.2 µM, the GI50 (COLO 205 colon) was 13.5 µM and the TGI (COLO 205 colon) was 26.6 µM. For the same compound, the GI50 (DU-145 prostate) was 15 µM, the TGI (DU-145 prostate) was 28.5 µM and the GI50 (A549 NSCLC) was 8.49 µM. For the same compound, the TGI (A549 NSCLC) was 22.4 µM, the GI50 (NCI-H522 lung) was 12.7 µM and the TGI (NCI-H522 lung) was 27.1 µM. The GI50 (OVCAR-8 ovarian) was 14.7 µM, the TGI (OVCAR-8 ovarian) was 32.4 µM and the GI50 (CAKI-1 renal) was 2.04 µM. It also gave a TGI (CAKI-1 renal) of 8.51 µM, a GI50 (HCT-116 colon) of 1.85 µM and a TGI (HCT-116 colon) of 11.5 µM. It also gave a GI50 (PC-3 prostate) of 11.8 µM, a TGI (PC-3 prostate) of 24.8 µM and a GI50 (SF-295 CNS) of 4.06 µM. The TGI (SF-295 CNS) was 17.5 µM, the GI50 (M14 melanoma) was 15.2 µM and the TGI (M14 melanoma) was 31.2 µM. For the same compound, the GI50 (MCF7 breast) was 3.25 µM, the TGI (MCF7 breast) was 16.3 µM and the GI50 (SF-539 CNS) was 16.3 µM. The TGI (SF-539 CNS) was 30.4 µM, the GI50 (NCI-H226 lung) was 0.178 µM and the TGI (NCI-H226 lung) was 0.525 µM. It also gave a GI50 (HCT-15 colon) of 11.7 µM, a TGI (HCT-15 colon) of 25 µM and a GI50 (KM12 colon) of 14 µM. The TGI (KM12 colon) was 27.8 µM, the GI50 (SF-268 CNS) was 17.1 µM and the TGI (SF-268 CNS) was 32.1 µM. It also gave a GI50 (CCRF-CEM leukemia) of 15.1 µM, a TGI (CCRF-CEM leukemia) of 36 µM and a GI50 (UACC-62 melanoma) of 1.57 µM. For the same compound, the TGI (UACC-62 melanoma) was 8.34 µM, the GI50 (HOP-62 NSCLC) was 10 µM and the TGI (HOP-62 NSCLC) was 22.7 µM. It also gave a GI50 (HOP-92 NSCLC) of 0.839 µM, a TGI (HOP-92 NSCLC) of 12.8 µM and a GI50 (786-0 renal) of 12.3 µM. It also gave a TGI (786-0 renal) of 25.8 µM, a GI50 (SNB-75 CNS) of 12.4 µM and a TGI (SNB-75 CNS) of 25.3 µM. For the same compound, the GI50 (SW-620 colon) was 7.02 µM, the TGI (SW-620 colon) was 21 µM and the GI50 (RXF 393 renal) was 6.07 µM. It also gave a TGI (RXF 393 renal) of 18 µM, a GI50 (HT29 colon) of 12.9 µM and a TGI (HT29 colon) of 26.2 µM. The GI50 (HS 578T breast) was 17.3 µM, the TGI (HS 578T breast) was 40.3 µM and the GI50 (OVCAR-4 ovarian) was 2.18 µM. For the same compound, the TGI (OVCAR-4 ovarian) was 14.6 µM, the GI50 (U251 CNS) was 5.43 µM and the TGI (U251 CNS) was 19.6 µM. For the same compound, the GI50 (TK-10 renal) was 0.705 µM, the TGI (TK-10 renal) was 3.65 µM and the GI50 (SN12C renal) was 12 µM. It also gave a TGI (SN12C renal) of 24.7 µM, a GI50 (MOLT-4 leukemia) of 13.7 µM and a TGI (MOLT-4 leukemia) of 33.4 µM. For the same compound, the GI50 (BT-549 breast) was 17.5 µM, the TGI (BT-549 breast) was 32.3 µM and the GI50 (ACHN renal) was 13 µM. The TGI (ACHN renal) was 26 µM, the GI50 (SK-OV-3 ovarian) was 14.8 µM and the TGI (SK-OV-3 ovarian) was 27.9 µM. For the same compound, the GI50 (SK-MEL-28 melanoma) was 14.8 µM, the TGI (SK-MEL-28 melanoma) was 28.3 µM and the GI50 (SK-MEL-5 melanoma) was 13.3 µM. The TGI (SK-MEL-5 melanoma) was 26.2 µM, the GI50 (NCI-H460 lung) was 3.17 µM and the TGI (NCI-H460 lung) was 15 µM. For the same compound, the GI50 (UO-31 renal) was 8.3 µM, the TGI (UO-31 renal) was 21 µM and the GI50 (OVCAR-5 ovarian) was 1.13 µM. It also gave a TGI (OVCAR-5 ovarian) of 4.25 µM, a GI50 (K-562 leukemia) of 6.4 µM and a TGI (K-562 leukemia) of 22.7 µM. The GI50 (OVCAR-3 ovarian) was 5.28 µM, the TGI (OVCAR-3 ovarian) was 17.5 µM and the GI50 (MALME-3M melanoma) was 16.3 µM. For the same compound, the TGI (MALME-3M melanoma) was 31.8 µM, the GI50 (IGROV1 ovarian) was 0.755 µM and the TGI (IGROV1 ovarian) was 4.05 µM. It also gave a GI50 (NCI/ADR-RES ovarian) of 12.8 µM, a TGI (NCI/ADR-RES ovarian) of 28 µM and a GI50 (SR leukemia) of 11.7 µM. The TGI (SR leukemia) was 29 µM, the GI50 (UACC-257 melanoma) was 1.53 µM and the TGI (UACC-257 melanoma) was 7.78 µM. It also gave a GI50 (SK-MEL-2 melanoma) of 11.2 µM, a TGI (SK-MEL-2 melanoma) of 25.2 µM and a GI50 (NCI-H23 lung) of 10.7 µM. For the same compound, the TGI (NCI-H23 lung) was 24.7 µM, the GI50 (SNB-19 CNS) was 14 µM and the TGI (SNB-19 CNS) was 27.3 µM. It also gave a GI50 (T-47D breast) of 2.11 µM, a TGI (T-47D breast) of 12.2 µM and a GI50 (MDA-MB-435) of 15.4 µM. The TGI (MDA-MB-435) was 30 µM, the GI50 (A498 renal) was 0.092 µM and the TGI (A498 renal) was 0.34 µM.

Reference: PubChem BioAssay (NCI)
